The test system of assay [1] is BRD pathogens, M. haemolytica and P. multocida. Description: MIC screening panel of BRD pathogens (antibacterial / non-antibacterial).
A further assay deals with IL-1β. Description: LPS-stimulated whole bovine blood assay, MSD cytokine detection. In kind it is cell-based. The settings on record: overstimulation of IL-1β, LPS-stimulated bovine whole blood. The procedure:
The effect of multiple cytokines was not easily quantified using single cell types. Therefore, a fresh whole bovine blood assay was developed with LPS as a stimulant (TLR-4 agonist) and with IL-1β and TNF-α as the read-out. Compounds of the invention were evaluated against a positive control for their ability to inhibit LPS-induced IL-1β and TNF-α as an overall evaluation of relative potency and modulation of target pathways (Table 6).
In order to correlate RNA sequencing data to cytokine changes the whole blood assay was utilized. […] The enhancement result represents an overall stimulation of cytokine levels due to cellular stress or potential toxicity with increasing concentrations of the compound, representing a typical bell shape response curve for immunomodulatory activity.
In the bovine whole blood in vitro screening assay the inhibition of TNFα as induced by stimulation by lipopolysaccharide (LPS) and as measured by half the maximal inhibitory concentration (IC50) is recognized as the primary biomarker of immunomodulation potency upon pretreatment with the compounds of the invention.

The test system of the next assay is TNF-α. Described as above. In kind it is cell-based. The settings on record: Bos taurus, LPS-stimulated bovine whole blood; read-out: TNF-α (IC50 μM). As for the experimental part:
Therefore, a fresh whole bovine blood assay was developed with LPS as a stimulant (TLR-4 agonist) and with IL-1β and TNF-α as the read-out. Compounds of the invention were evaluated against a positive control for their ability to inhibit LPS-induced IL-1β and TNF-α as an overall evaluation of relative potency and modulation of target pathways (Table 6).
In the bovine whole blood in vitro screening assay the inhibition of TNFα as induced by stimulation by lipopolysaccharide (LPS) and as measured by half the maximal inhibitory concentration (IC50) is recognized as the primary biomarker of immunomodulation potency upon pretreatment with the compounds of the invention. IL-1β is a mediator of the inflammation response and is involved in a number of cellular activities including proliferation, differentiation and apoptosis. IL-1β is also released upon cellular stress or cytotoxicity or upon TLR stimulation. In the bovine whole blood assay the stimulation of IL-1β release upon increasing concentration of test compound is seen as a potential cellular toxicity signal as induced by the test compound. In order to estimate a therapeutic index from the in vitro assay a differential between the TNFα IC50 (immunomodulation potency) versus the perceived cellular toxicity concentration (IL-1β release or overstimulation) was utilized.

The mark [2] stands for this setting: read-out: antibacterial / non-antibacterial (MIC for the BRD pathogens).

The text below walks through data of US12295936B2, “Immunomodulating urea azalides” (Zoetis Services LLC, priority 2020, dated 2025).

Like-named read-outs stand apart in the source and are kept apart here.

Broadly, the IC50 is the concentration that inhibits the measured activity by half.

Take `CCCNC[C@]1(O)[C@H](C)O[C@@H](O[C@H]2[C@H](C)[C@@H](O[C@@H]3O[C@H](C)C[C@H](N(C)C(=O)N(C)Cc4ccccc4)[C@H]3O)[C@](C)(O)C[C@@H](C)CN[C@H](C)[C@@H](O)[C@](C)(O)[C@@H](CC)OC(=O)[C@@H]2C)C[C@@]1(C)OC` [Example H-40, 1-benzyl-3-((2S,3R,4S,6R)-2-(((2R,3S,4R,5R,8R,10R,11R,12S,13S,14R)-2-ethyl-3,4,10-trihydroxy-13-(((2R,4R,5S,6S)-5-hydroxy-4-methoxy-4,6-dimethyl-5-((propylamino)methyl)tetrahydro-2H-pyran-2-yl)oxy)-3,5,8,10,12,14-hexamethyl-15-oxo-1-oxa-6-azacyclopentadecan-11-yl)oxy)-3-hydroxy-6-methyltetrahydro-2H-pyran-4-yl)-1,3-dimethylurea]: in assay [1] (setting [2]), the MIC is more than 64 µg/mL. Also, the “IL-1β OS of LPS” value in the assay with IL-1β amounted to 40 µM. In addition, in the assay with TNF-α, the concentration for half-maximal inhibition (IC50) came out at 45 µM.

As to `CCCNC[C@]1(O)[C@H](C)O[C@@H](O[C@H]2[C@H](C)[C@@H](O[C@@H]3O[C@H](C)C[C@H](N(C)C(=O)N(CC(F)(F)F)c4ccccc4)[C@H]3O)[C@](C)(O)C[C@@H](C)CN[C@H](C)[C@@H](O)[C@](C)(O)[C@@H](CC)OC(=O)[C@@H]2C)C[C@@]1(C)OC` [Example H-54, 1-((2S,3R,4S,6R)-2-(((2R,3S,4R,5R,8R,10R,11R,12S,13S,14R)-2-ethyl-3,4,10-trihydroxy-13-(((2R,4R,5S,6S)-5-hydroxy-4-methoxy-4,6-dimethyl-5-((propylamino)methyl)tetrahydro-2H-pyran-2-yl)oxy)-3,5,8,10,12,14-hexamethyl-15-oxo-1-oxa-6-azacyclopentadecan-11-yl)oxy)-3-hydroxy-6-methyltetrahydro-2H-pyran-4-yl)-1-methyl-3-phenyl-3-(2,2,2-trifluoroethyl)urea], in assay [1] (setting [2]), the MIC is more than 64 µg/mL. Moreover, in the assay on IL-1β, the “IL-1β OS of LPS” value was determined as 6 µM. Moreover, in the assay with TNF-α, the half-maximal inhibitory concentration (IC50) stood at 9 µM.

With `CCCNC[C@]1(O)[C@H](C)O[C@@H](O[C@H]2[C@H](C)[C@@H](O[C@@H]3O[C@H](C)C[C@H](N(C)C(=O)Nc4ccc(C#N)cc4)[C@H]3O)[C@](C)(O)C[C@@H](C)CN[C@H](C)[C@@H](O)[C@](C)(O)[C@@H](CC)OC(=O)[C@@H]2C)C[C@@]1(C)OC` [Example H-77, 3-(4-cyanophenyl)-1-((2S,3R,4S,6R)-2-(((2R,3S,4R,5R,8R,10R,11R,12S,13S,14R)-2-ethyl-3,4,10-trihydroxy-13-(((2R,4R,5S,6S)-5-hydroxy-4-methoxy-4,6-dimethyl-5-((propylamino)methyl)tetrahydro-2H-pyran-2-yl)oxy)-3,5,8,10,12,14-hexamethyl-15-oxo-1-oxa-6-azacyclopentadecan-11-yl)oxy)-3-hydroxy-6-methyltetrahydro-2H-pyran-4-yl)-1-methylurea], the MIC in assay [1] (setting [2]) was more than 64 µg/mL. Further, the “IL-1β OS of LPS” value with IL-1β was determined as 200 µM. In addition, the half-maximal inhibitory concentration (IC50) with TNF-α came to 30 µM.

As for `CCCNC[C@]1(O)[C@H](C)O[C@@H](O[C@H]2[C@H](C)[C@@H](O[C@@H]3O[C@H](C)C[C@H](N(C)C(=O)N4CCc5ccccc54)[C@H]3O)[C@](C)(O)C[C@@H](C)CN[C@H](C)[C@@H](O)[C@](C)(O)[C@@H](CC)OC(=O)[C@@H]2C)C[C@@]1(C)OC` [Example I-3, N-((2S,3R,4S,6R)-2-(((2R,3S,4R,5R,8R,10R,11R,12S,13S,14R)-2-ethyl-3,4,10-trihydroxy-13-(((2R,4R,5S,6S)-5-hydroxy-4-methoxy-4,6-dimethyl-5-((propylamino)methyl)tetrahydro-2H-pyran-2-yl)oxy)-3,5,8,10,12,14-hexamethyl-15-oxo-1-oxa-6-azacyclopentadecan-11-yl)oxy)-3-hydroxy-6-methyltetrahydro-2H-pyran-4-yl)-N-methylindoline-1-carboxamide], in the assay with IL-1β, the “IL-1β OS of LPS” value turned out to be 32 µM. Further, the IC50 with TNF-α turned out to be 40 µM.

For `CC[C@H]1OC(=O)[C@H](C)[C@@H](O[C@H]2C[C@@](C)(OC)[C@](O)(CN3Cc4nccnc4C3)[C@H](C)O2)[C@H](C)[C@@H](O[C@@H]2O[C@H](C)C[C@H](N(C)C(=O)N(C)c3ccccc3)[C@H]2O)[C@](C)(O)C[C@@H](C)CN[C@H](C)[C@@H](O)[C@]1(C)O` [Example J-16, 1-((2S,3R,4S,6R)-2-(((2R,3S,4R,5R,8R,10R,11R,12S,13S,14R)-13-(((2R,4R,5S,6S)-5-((5,7-dihydro-6H-pyrrolo[3,4-b]pyrazin-6-yl)methyl)-5-hydroxy-4-methoxy-4,6-dimethyltetrahydro-2H-pyran-2-yl)oxy)-2-ethyl-3,4,10-trihydroxy-3,5,8,10,12,14-hexamethyl-15-oxo-1-oxa-6-azacyclopentadecan-11-yl)oxy)-3-hydroxy-6-methyltetrahydro-2H-pyran-4-yl)-1,3-dimethyl-3-phenylurea], the MIC in assay [1] (setting [2]) was more than 64 µg/mL. For the same molecule, in the assay with IL-1β, the “IL-1β OS of LPS” value is 40 µM. For the same molecule, the IC50 in the assay with TNF-α worked out at 60 µM.

Take `CC[C@H]1OC(=O)[C@H](C)[C@@H](O[C@H]2C[C@@](C)(OC)[C@](O)(CN3CC(N4CCCCC4)C3)[C@H](C)O2)[C@H](C)[C@@H](O[C@@H]2O[C@H](C)C[C@H](N(C)C(=O)N(C)c3ccccc3)[C@H]2O)[C@](C)(O)C[C@@H](C)CN[C@H](C)[C@@H](O)[C@]1(C)O` [Example J-19, 1-((2S,3R,4S,6R)-2-(((2R,3S,4R,5R,8R,10R,11R,12S,13S,14R)-2-ethyl-3,4,10-trihydroxy-13-(((2R,4R,5S,6S)-5-hydroxy-4-methoxy-4,6-dimethyl-5-((3-(piperidin-1-yl)azetidin-1-yl)methyl)tetrahydro-2H-pyran-2-yl)oxy)-3,5,8,10,12,14-hexamethyl-15-oxo-1-oxa-6-azacyclopentadecan-11-yl)oxy)-3-hydroxy-6-methyltetrahydro-2H-pyran-4-yl)-1,3-dimethyl-3-phenylurea]: the MIC in assay [1] (setting [2]) is more than 64 µg/mL. Moreover, the “IL-1β OS of LPS” value with IL-1β turned out to be 16 µM. Besides, the IC50 with TNF-α was determined as 19 µM.

In the case of `CC[C@H]1OC(=O)[C@H](C)[C@@H](O[C@H]2C[C@@](C)(OC)[C@](O)(CN3CCc4ccccc4C3)[C@H](C)O2)[C@H](C)[C@@H](O[C@@H]2O[C@H](C)C[C@H](N(C)C(=O)N(C)c3ccccc3)[C@H]2O)[C@](C)(O)C[C@@H](C)CN[C@H](C)[C@@H](O)[C@]1(C)O` [Example J-25, 1-((2S,3R,4S,6R)-2-(((2R,3S,4R,5R,8R,10R,11R,12S,13S,14R)-13-(((2R,4R,5S,6S)-5-((3,4-dihydroisoquinolin-2(1H)-yl)methyl)-5-hydroxy-4-methoxy-4,6-dimethyltetrahydro-2H-pyran-2-yl)oxy)-2-ethyl-3,4,10-trihydroxy-3,5,8,10,12,14-hexamethyl-15-oxo-1-oxa-6-azacyclopentadecan-11-yl)oxy)-3-hydroxy-6-methyltetrahydro-2H-pyran-4-yl)-1,3-dimethyl-3-phenylurea], the MIC in assay [1] (read-out: MIC ≤64 μg/mL for at least one of the bacterial strains (flag * at Ex #)) is less than 64 µg/mL. In the assay on IL-1β, the “IL-1β OS of LPS” value amounted to 16 µM. For the same molecule, the IC50 with TNF-α stood at 6 µM.
